Measurements: US10759766B2, “Certain chemical entities, compositions, and methods” (NeuPharma, Inc., priority 2011, dated 2020)

What was measured:
BRAF = BRAF (Homo sapiens (Human), UniProt P15056); experiment: Z′-LYTE kinase inhibition assay (Invitrogen), BRAF; format: biochemical; settings: 1 μM compound, Z′-LYTE method; read-out: % inhibition at 1 μM against BRAF
Protocol: Inhibitory activities Inhibitory activities of compounds against BRAF, and BRAF V600E were measured by Invitrogen using Z′-LYTE® Method as briefly described in the following. 4× Test compounds are dissolved in 1% DMSO. […] ATP solutions are diluted to a 4×ATP working concentration in Kinase Buffer (50 mM HEPES pH 7.5, 0.01% BRIJ-35, 10 mM MgCl2, 1 mM EGTA). Reaction started by 30-second shaking of mixture consisting of 2.5 μL 4× test compound, […] and 2.5 μL 4×ATP Solution on Bar-coded Corning, low volume NBS, black 384-well plate (Corning Cat. #3676). Then the mixture was incubated for 60-minute at room temperature for the kinase reaction, followed by addition of 5 μL of a 1:1024 dilution of development reagent A and 30-second plate shake. The mixture was then incubated for another 60-minute at room temperature for development reaction. Fluorescence was read by plate reader. IC50 was calculated by plotting the concentration of compound vs the percentage of inhibition in treated wells using GraphPad Prism 5.

BRAF V600E = BRAF V600E (Homo sapiens (Human), UniProt P15056, V600E); experiment: Z′-LYTE kinase inhibition assay (Invitrogen), BRAF V600E; format: biochemical; settings: Z′-LYTE method; for inhibition at 1 µM: 1 μM compound, read-out: % inhibition at 1 μM against BRAF V600E; for IC50: read-out: IC50 against BRAF V600E
Sequence of BRAF V600E (P15056 whole entry V600E): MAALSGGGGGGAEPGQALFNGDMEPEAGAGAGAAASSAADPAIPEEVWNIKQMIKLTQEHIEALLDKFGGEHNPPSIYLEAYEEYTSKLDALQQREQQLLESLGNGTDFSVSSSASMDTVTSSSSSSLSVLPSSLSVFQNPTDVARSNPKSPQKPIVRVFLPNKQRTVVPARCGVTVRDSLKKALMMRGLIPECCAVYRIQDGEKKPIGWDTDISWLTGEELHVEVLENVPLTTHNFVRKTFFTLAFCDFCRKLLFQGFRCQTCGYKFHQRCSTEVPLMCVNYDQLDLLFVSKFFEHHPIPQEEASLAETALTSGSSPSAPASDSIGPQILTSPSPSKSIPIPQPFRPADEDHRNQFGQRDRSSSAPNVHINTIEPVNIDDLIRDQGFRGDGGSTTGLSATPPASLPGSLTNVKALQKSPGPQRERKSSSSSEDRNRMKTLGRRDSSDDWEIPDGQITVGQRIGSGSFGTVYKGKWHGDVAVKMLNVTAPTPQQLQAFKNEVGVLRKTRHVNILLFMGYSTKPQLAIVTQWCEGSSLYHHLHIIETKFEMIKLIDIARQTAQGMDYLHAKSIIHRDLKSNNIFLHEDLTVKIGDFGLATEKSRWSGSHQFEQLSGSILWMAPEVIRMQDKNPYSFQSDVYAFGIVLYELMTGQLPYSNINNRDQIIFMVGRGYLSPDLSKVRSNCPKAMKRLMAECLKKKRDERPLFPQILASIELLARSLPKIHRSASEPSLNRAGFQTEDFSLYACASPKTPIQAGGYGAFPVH
Method in brief: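 FRET-based Z′-LYTE peptide phosphorylation format in 50 mM HEPES pH 7.5, 0.01% BRIJ-35, 10 mM MgCl2, 1 mM EGTA with ATP. Kinase reaction 60 min at room temperature, then protease development step 60 min at room temperature before fluorescence read. IC50 from compound concentration versus percent inhibition.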

KDR (VEGFR2) = KDR (VEGFR2) (Homo sapiens (Human), UniProt P35968); experiment: Z′-LYTE kinase inhibition assay (Invitrogen), KDR; format: biochemical; settings: Z′-LYTE method; for inhibition at 1 µM: 1 μM compound, read-out: % inhibition at 1 μM against KDR; for IC50: read-out: IC50 against KDR
Sequence of KDR (VEGFR2) (P35968 20-1356): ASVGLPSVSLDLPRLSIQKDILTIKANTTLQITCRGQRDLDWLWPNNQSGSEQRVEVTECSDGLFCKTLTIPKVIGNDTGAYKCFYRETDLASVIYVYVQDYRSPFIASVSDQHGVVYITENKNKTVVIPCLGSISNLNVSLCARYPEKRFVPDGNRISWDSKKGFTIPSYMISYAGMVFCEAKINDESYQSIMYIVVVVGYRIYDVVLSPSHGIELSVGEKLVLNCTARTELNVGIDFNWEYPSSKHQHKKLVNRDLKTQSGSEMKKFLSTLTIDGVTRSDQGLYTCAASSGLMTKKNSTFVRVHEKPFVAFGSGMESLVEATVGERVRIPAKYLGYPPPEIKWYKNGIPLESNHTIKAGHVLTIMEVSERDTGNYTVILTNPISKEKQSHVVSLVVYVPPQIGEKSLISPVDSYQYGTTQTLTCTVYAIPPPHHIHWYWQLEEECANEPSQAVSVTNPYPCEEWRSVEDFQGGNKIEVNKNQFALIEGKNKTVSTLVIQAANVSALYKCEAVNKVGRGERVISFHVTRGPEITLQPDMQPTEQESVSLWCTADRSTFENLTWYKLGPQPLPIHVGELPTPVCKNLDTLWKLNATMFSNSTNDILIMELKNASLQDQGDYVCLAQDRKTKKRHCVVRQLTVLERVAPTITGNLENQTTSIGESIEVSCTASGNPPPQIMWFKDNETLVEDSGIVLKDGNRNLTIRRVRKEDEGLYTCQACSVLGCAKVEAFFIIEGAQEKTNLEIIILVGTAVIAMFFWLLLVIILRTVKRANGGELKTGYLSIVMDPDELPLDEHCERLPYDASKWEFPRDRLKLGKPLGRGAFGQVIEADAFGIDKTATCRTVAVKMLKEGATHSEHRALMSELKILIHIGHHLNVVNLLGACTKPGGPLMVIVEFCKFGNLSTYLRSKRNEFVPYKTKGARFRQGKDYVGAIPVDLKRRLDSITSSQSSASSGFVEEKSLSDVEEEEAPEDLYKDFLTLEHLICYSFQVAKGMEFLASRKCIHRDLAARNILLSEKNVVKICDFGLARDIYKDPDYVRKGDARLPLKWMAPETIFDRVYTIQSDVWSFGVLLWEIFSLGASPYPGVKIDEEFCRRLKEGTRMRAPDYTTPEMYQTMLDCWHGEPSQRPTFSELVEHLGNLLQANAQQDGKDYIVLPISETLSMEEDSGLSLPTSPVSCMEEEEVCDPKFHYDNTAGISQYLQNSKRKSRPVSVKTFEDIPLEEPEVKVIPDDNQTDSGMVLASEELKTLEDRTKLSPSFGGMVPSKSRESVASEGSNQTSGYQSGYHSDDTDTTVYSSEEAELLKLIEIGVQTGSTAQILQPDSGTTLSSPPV
Method in brief: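 Z′-LYTE FRET assay: 10 μL reactions with 0.5–11.7 ng KDR and 2 μM Tyr 01 peptide in 50 mM HEPES pH 7.5, 10 mM MgCl2, 1 mM EGTA, 0.01% BRIJ-35, 1 h at room temperature. Development Reagent B (1:256) added for 60 min, fluorescence read; IC50 from concentration–inhibition curves.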

A375 cells = experiment: Inhibition of cancer cell growth, MTT assay, A375; format: cell-based; settings: Homo sapiens, A-375, 72 h exposure
Method in brief: (§1)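 IC50 derived from percent growth inhibition versus concentration, tested in triplicate. Growth inhibition came from MTT read at 570 nm after 72 h drug exposure, relative to viable cells at dosing. Cells (about 4000/well, RPMI 1640 + 10% FBS) adhered 24 h before treatment; final DMSO 1%.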

A549 cells = experiment: Inhibition of cancer cell growth, MTT assay, A549; format: cell-based; settings: Homo sapiens, A549, 72 h exposure
Method in brief: as §1

Sequence of BRAF (P15056 whole entry): as the sequence (P15056 whole entry V600E) above, with E600V counted along it

| SMILES | inhibition at 1 µM (BRAF) [%] | inhibition at 1 µM (BRAF V600E) [%] | inhibition at 1 µM (KDR (VEGFR2)) [%] | IC50 (A375 cells) [µM] | IC50 (A549 cells) [µM] | IC50 (KDR (VEGFR2)) [µM] | IC50 (BRAF V600E) [µM] |
| --- | --- | --- | --- | --- | --- | --- | --- |
| O=C(Nc1ccc(Cl)c(C(F)(F)F)c1)Nc1ccc(F)c(C(=O)c2ccc3nccnc3c2)c1Cl [Compound C008, 1-(4-chloro-3-(trifluoromethyl)phenyl)-3-(2-chloro-4-fluoro-3-(quinoxaline-6-carbonyl)phenyl)urea] | < 70 | < 70 | < 70 | > 5 | 2 to 5 | – | – |
| O=C(Nc1ccc(F)cc1)Nc1ccc(F)c(C(=O)c2ccc3ncc(N4CCOCC4)nc3c2)c1 [Compound C053, 1-(4-fluoro-3-(3-morpholinoquinoxaline-6-carbonyl)phenyl)-3-(4-fluorophenyl)urea] | > 89 | > 89 | > 89 | < 1 | < 2 | < 0.1 | – |
| O=C(Nc1cccc(C(F)(F)F)c1)Nc1ccc(F)c(C(=O)c2ccc3ncc(N4CCOCC4)nc3c2)c1 [Compound C036, 1-(4-fluoro-3-(3-morpholinoquinoxaline-6-carbonyl)phenyl)-3-(3-(trifluoromethyl)phenyl)urea] | < 70 | 70 to 89 | > 89 | < 1 | < 2 | < 0.1 | < 0.1 |
| O=C(Nc1cccc(C(F)(F)F)c1)Nc1ccc(F)c(C(=O)c2ccc3ncc(N4CCNCC4)nc3c2)c1 [Compound C085, 1-(4-fluoro-3-(3-(piperazin-1-yl)quinoxaline-6-carbonyl)phenyl)-3-(3-(trifluoromethyl)phenyl)urea] | > 89 | > 89 | > 89 | < 1 | < 2 | – | – |
| O=C(Nc1cccc(F)c1)Nc1cc(F)c(F)c(C(=O)c2ccc3ncc(N4CCOCC4)nc3c2)c1 [Compound C039, 1-(3,4-difluoro-5-(3-morpholinoquinoxaline-6-carbonyl)phenyl)-3-(3-fluorophenyl)urea] | 70 to 89 | > 89 | 70 to 89 | 1 to 5 | 2 to 5 | – | – |
| O=C(Nc1cccc(C(=O)c2ccc3ncc(N4CCCC4)nc3c2)c1)c1cccc(C(F)(F)F)c1 [Compound C122, N-(3-(3-(pyrrolidin-1-yl)quinoxaline-6-carbonyl)phenyl)-3-(trifluoromethyl)benzamide] | 70 to 89 | > 89 | > 89 | 1 to 5 | 2 to 5 | < 0.1 | < 0.1 |
| NCCNc1cnc2ccc(C(=O)c3cc(NC(=O)Nc4ccc(F)cc4)ccc3F)cc2n1 [Compound C089, 1-(3-(3-((2-aminoethyl)amino)quinoxaline-6-carbonyl)-4-fluorophenyl)-3-(4-fluorophenyl)urea] | – | > 89 | > 89 | 1 to 5 | > 5 | – | – |
| O=C(Nc1ccc(F)c(C(=O)c2ccc3nccnc3c2)c1)c1ccc(Cl)c(C(F)(F)F)c1 [Compound C117, 4-chloro-N-(4-fluoro-3-(quinoxaline-6-carbonyl)phenyl)-3-(trifluoromethyl)benzamide] | – | > 89 | 70 to 89 | 1 to 5 | 2 to 5 | – | – |
| O=C(Nc1cccc(F)c1)Nc1cccc(C(=O)c2ccc3ncc(N4CCOCC4)nc3c2)c1 [Compound C016, 1-(3-fluorophenyl)-3-(3-(3-morpholinoquinoxaline-6-carbonyl)phenyl)urea] | – | > 89 | 70 to 89 | > 5 | > 5 | > 0.1 | < 0.1 |
| O=C(Nc1cccc(Cl)c1)Nc1ccc(F)c(C(=O)c2ccc3nccnc3c2)c1 [Compound C072, 1-(3-chlorophenyl)-3-(4-fluoro-3-(quinoxaline-6-carbonyl)phenyl)urea] | – | > 89 | < 70 | 1 to 5 | > 5 | – | – |
